Tests used:
[1] = test system: HCC38 triple negative breast cancer cells; experiment: Cell viability assay; type: cell-based
[2] = test system: normal pancreatic epithelial cells; experiment: Viability of normal pancreatic epithelial cells; details: 100 nM to 1000 nM
KCL-22 CML cells = experiment: MTS cell viability assay; type: cell-based; details: Homo sapiens
Protocol: (§1) IC50 Determinations for Ovarian, Liver, Pancreatic, CML, AML Cancer Cell Lines (See e.g. FIGS. 4, 6A-6C, 21, 22A, 22B, 23, 24A-24C, 25A, 25B and 34): MTS assays were performed for cell viability. SKOV3 ovarian cancer, Huh-7 hepatocellular carcinoma, MIA-PaCa2 pancreatic cancer, KCL-22 CML, T315I mutant KCL-22 CML, MOLM-13 AML and MV4-11 AML cells were seeded in 96-well plates (5000 cells/well for solid tumors, 10000 cells/well for blood tumors), incubated overnight at 37° C. in 5% CO2, and exposed to racemic ETP69 or S enantiomer in a dose-dependent manner for 48 h. Dimethyl sulfoxide (DMSO) was used as the vehicle control. Viable cell numbers were determined by tetrazolium conversion to its formazan dye and absorbance was measured at 490 nm using an automated ELISA plate reader. Each experiment was performed in quadruplicate.

[3] = test system: Huh-7 hepatocellular carcinoma cells; experiment: MTS cell viability assay; type: cell-based; details: Homo sapiens
Protocol: as §1

MV4-11 AML cells = experiment: MTS cell viability assay; type: cell-based; details: Homo sapiens
Protocol: as §1

[4] = test system: T315I mutant KCL-22 CML cells; experiment: MTS cell viability assay; type: cell-based; details: Homo sapiens
Protocol: as §1

p53 = experiment: QPCR of p53 expression in Panc1 cells; type: cell-based; details: 100 nM-500 nM
Source text: QPCR: Total RNA was isolated from cells using the RNeasy kit (Qiagen). The Tetro cDNA kit (Bioline) and SensiFast Probe kit (Bioline) were used to reverse-transcribe and amplify total RNA according to the manufacturer's protocol. The ProbeFinder software (Roche Applied Science) was used to design the primer sets for SUV39H1, p53 and GAPDH and to select the respective probes from the Universal ProbeLibrary (Roche Applied Science). Probe #13 and the following primers were used for the SUV39H1 assay: 5′ […] (SEQ ID NO: 1) and 5′ […] (SEQ ID NO:2). Probe #21 and the following primers were used for the p53 assay: 5′ […] (SEQ ID NO:3) and 5′ […] (SEQ ID NO:4). Probe #60 and the following primers were used for the GAPDH assay: 5′ agccacatcgctcagacac (SEQ ID NO:5) and 5′ gcccaatacgaccaaatcc (SEQ ID NO:6). All samples were run in triplicates. Amplifications were performed on a Bio-Rad CFX96 Touch Multiple-Color Real-time PCR Detection System. The data were normalized to the GAPDH expression and the relative expression levels were calculated using the 2^−ΔΔCt method.

[5] = test system: transferases (HMT, HAT, DNMT); experiment: Screen against a number of transferases; type: biochemical, human
Protocol: For histone methyltranferase (HMT), DNA methyltransferase (DNMT) and Histone acetyltransferase (HAT) assays in vitro, human recombinant HMT, DNMT and HAT proteins were mixed with substrates in the reaction buffer (50 mM Tris-HCl (pH 8.5), 5 mM MgCl2, 50 mM NaCl, 1 mM DTT, 1 mM PMSF, 1% DMSO), including histone H3, histone H4, nucleosomes, or core histone. Racemic ETP69, S enantiomer or DMSO as a vehicle control was preincubated in the mixture. Next, for HMTs and DNMT assays, […] of ^3H-SAM was added to the mixture for the reaction initiation and conversion of ^3H-SAM+histone L-lysine to SAH+histone N^6-[methyl-^3H]-L-lysine was monitored with miniatured radioligand-filter binding platform. For p300 HAT assays, the conversion of acetyl-^3H-acetyl coenzyme A to coenzyme A was monitored. The reactions were carried out at 30° C. IC50 values were determined using Excel and GraphPad Prism software.

[6] = test system: HCC1937 triple negative breast cancer cells; experiment: Cell viability assay; type: cell-based
[7] = test system: Cyclin-dependent kinase inhibitor 1B p27(Kip1); experiment: Western blot, induction of p27(Kip1); type: cell-based, human; details: A2058, DU145, A549 and SKOV3 cells
Protocol: Induction of p16, p53, p21waf1 and p27 (FIGS. 8 and 9): Western blot analyses were performed with specific antibodies. Briefly, human A2058 melanoma, DU145 prostate, A549 non-small lung and SKOV3 ovarian cancer cells were treated with ETP69. Whole-cell lysates (40 […]g) were resolved by SDS-PAGE. Primary specific antibodies to p53, p21^WAF1, p27(Kip1), p16 and Actin were diluted in PBS (pH 7.5) with 5% (w/v) nonfat milk and 0.1% (v/v) Tween-20 over night at 4° C. Horseradish peroxidase-conjugated secondary antibodies were incubated in PBS (pH 7.5) with 5% (w/v) nonfat milk and 0.1% (v/v) Tween-20 for 1 h at room temperature. Positive immuno-reactive proteins were detected using the ECL system (Pierce, Rockford, Ill.).

[8] = test system: A549 lung cancer SQ xenografts; type: in vivo, mouse; details: A549 xenograft, 10 mg/kg orally once daily for 31 days
Protocol: Human A549 non-small lung cancer cells (5×10^6) were resuspended in serum-free DMEM medium and Matrigel (ration of 1:1) and subcutaneously injected into the flank of 5-6 weeks old female NOD/SCID/IL-2rg(ko)(NSG). When palpable tumor sizes reached at approximately 50 mm^3, mice were divided into two groups (vehicle=10, treatment=10). Then, ETP69 was orally administered at 10 mg/kg with vehicle (10% DMSO+30% Solutol+60% saline), once daily for 31 days. Tumor volumes were calculated by the formula 1/2a×b^2, where a is the long diameter, and b is the short diameter. Tumor volumes correlate with tumor weights. The statistical significance of group differences was analyzed using a Student's t-test with the two-tailed distribution. P values less than 0.05 were considered statistically significant.

[9] = test system: A549 non-small cell lung cancer cells; experiment: MTS cell viability assay, alone and in combination with multi-kinase inhibitor; type: cell-based; details: Homo sapiens
Protocol: Cell Testing Assays with ETP Derivatives in Combination with DNMT Inhibitors and Multi-Kinase Inhibitors (See FIGS. 12A-12D, 13A-13C and 14A-14C): MTS assays were performed for cell viability for combination study with ETP69 plus DNMT inhibitors or mutikinase inhibitor. Human SKOV3 ovarian and A549 non-small cancer cells were seeded in 96-well plates (5000/well), incubated overnight at 37° C. in 5% CO2, and exposed to ETP69 plus azacitidine, decitabine or sorafenib for 48. Dimethyl sulfoxide (DMSO) was used as the vehicle control. Viable cell numbers were determined by tetrazolium conversion to its formazan dye and absorbance was measured at 490 nm using an automated ELISA plate reader. Each experiment was performed in quadruplicate.
IC50 Determinations for Ovarian, Liver, Pancreatic, CML, AML Cancer Cell Lines (See e.g. FIGS. 4, 6A-6C, 21, 22A, 22B, 23, 24A-24C, 25A, 25B and 34): MTS assays were performed for cell viability. […] Viable cell numbers were determined by tetrazolium conversion to its formazan dye and absorbance was measured at 490 nm using an automated ELISA plate reader. […]

SMILES: CN1C(=O)[C@@]23C[C@](C)(C#N)[C@H](c4ccc5c(c4)OCO5)N2C(=O)[C@]1(C)SS3 (racemic) [ETP69, Rac-(3S,6S,7S,8aS)-6-(Benzo[d][1,3]dioxol-5-yl)-2,3,7-trimethyl-1,4-dioxohexahydro-6H-3,8a-epidithiopyrrolo[1,2-a]pyrazine-7-carbonitrile]
- viability inhibition [1]: viability inhibition
- destruction of normal pancreatic cells [2]: little destruction
- IC50 (KCL-22 CML cells): 180 nM
- IC50 [3]: 3.3 nM
- IC50 (MV4-11 AML cells): 1.8 nM
- IC50 [4]: 170 nM
- up-regulation of p53 (p53): ≥ 3 fold
- potency against several transferases compared with chaetocin [5]: about ten times more potency
- selectivity for histone methyltransferases (SUV39H1; G9a) over histone acetylases (p300) and DNA methyl transferases (DNMT1) [5]: selective
- viability inhibition [6]: viability inhibition
- induction of p27(Kip1) [7]: induces
- toxicity symptoms [8]: no observable toxicity symptoms
- tumor volume [8]: decreased
- tumor weight [8]: decreased
- IC50 [9]: 100 nM
